We go through three molecules from US20080214537A1, “BRIDGED PHENANTHRIDINES” (CARA THERAPEUTICS, INC., priority 2007, published 2008).

For data set [1], the target named is human CB2 receptor (hCB2) (Homo sapiens, UniProt P34972). Description: cAMP assay (LANCE TR-FRET) in CHO-K1 cells expressing hCB2. The following applies: for Emax: CHO-K1, intrinsic activity: percent maximal activation compared to full activation by CP55,940 (1 μM = 100%), read-out: hCB2 % Max Range; for EC50: CHO-K1 cells stably expressing hCB2, intracellular cAMP, NKH-477 prestimulated, average of at least three replicates. In kind it is cell-based. In general terms: Changes in cAMP serve as a functional read-out for many G protein-coupled receptors.

Data set [2] concerns the target human CB1 receptor (hCB1) (Homo sapiens, UniProt P21554). In words: cAMP assay (LANCE TR-FRET) in CHO-K1 cells expressing hCB1. The following applies: activity on hCB1 represents inverse agonism; for Emax: CHO-K1, percent of range defined by CP55,940 (1 μM = 100%), read-out: hCB1 % Max Range; for EC50: CHO-K1 cells stably expressing hCB1, intracellular cAMP, NKH-477 prestimulated. In kind it is cell-based.

Data set [3] has as its system Male ICR mice. In words: Acetic acid-induced writhing assay in mice. Type of data set: in vivo. The following applies: 10 mg/kg subcutaneous, 30 min before 0.6% acetic acid i.p.; writhes counted over 15 min. An excerpt:
12: 525-562; Ramabadran and Bansinath (1986) Pharm. Res. 3: 263-270]. Intraperitoneal administration of dilute acetic acid solution causes a writhing behavior in mice. A writhe is defined as a contraction of the abdominal muscles accompanied by an extension of the forelimbs and elongation of the body. The number of writhes observed in the presence and absence of test compounds is counted to determine the analgesic activity of the compounds.
(§1) Male ICR mice, 20-40 grams in weight, served as experimental subjects. To determine the activity and potency of test compounds, mice were weighed and then injected with different doses of the compound solution or vehicle subcutaneously in the back of the neck and then returned to their home cages. Thirty minutes later, body temperatures were obtained using a digital rectal probe and then mice were immediately injected with 10 ml/kg of a 0.6% (v/v) acetic acid solution into the right lower quadrant of the abdomen. Mice were then placed in individual observation chambers (usually a 4000 ml beaker) with a fine layer of bedding at the bottom and the recording of the number of writhes begun immediately. The number of writhes was counted over a 15-min period starting from the time of the acetic acid injection. Raw data were analyzed using a one-way ANOVA followed by Dunnett's post-tests. For dose-response analysis, raw data were converted to % maximum possible effect (% MPE) using the formula:
% MPE=((Wc−Wv)/(0−Wv))*100
where Wc is the number of writhes in compound-treated mice and Wv is the mean number of writhes in vehicle-treated mice. The dose which elicited 50% attenuation of hypersensitivity (ED50) was determined using linear regression analysis. (Tallarida & Murray, 1987).
Background: Writhing tests count abdominal constrictions after an irritant is injected.

A short description of data set [4]: Body temperature (rectal probe) in writhing assay mice. In kind it is in vivo. To be noted: 10 mg/kg subcutaneous; thirty minutes after dosing. How it is done: as §1, with “formula: […]” for “formula:”

SMILES strings stand for the structures.

Chain of human CB2 receptor (hCB2) (P34972 whole entry): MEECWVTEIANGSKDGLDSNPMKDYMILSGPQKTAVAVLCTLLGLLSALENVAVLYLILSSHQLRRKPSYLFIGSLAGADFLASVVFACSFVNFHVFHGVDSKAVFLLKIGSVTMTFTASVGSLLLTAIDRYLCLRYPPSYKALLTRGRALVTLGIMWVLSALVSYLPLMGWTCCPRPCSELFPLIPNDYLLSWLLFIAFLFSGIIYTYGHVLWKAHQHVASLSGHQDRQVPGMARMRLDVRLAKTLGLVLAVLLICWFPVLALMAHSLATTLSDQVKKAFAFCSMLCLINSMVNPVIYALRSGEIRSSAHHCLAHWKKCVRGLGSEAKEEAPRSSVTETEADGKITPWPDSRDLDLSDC
Chain of human CB1 receptor (hCB1) (P21554 whole entry): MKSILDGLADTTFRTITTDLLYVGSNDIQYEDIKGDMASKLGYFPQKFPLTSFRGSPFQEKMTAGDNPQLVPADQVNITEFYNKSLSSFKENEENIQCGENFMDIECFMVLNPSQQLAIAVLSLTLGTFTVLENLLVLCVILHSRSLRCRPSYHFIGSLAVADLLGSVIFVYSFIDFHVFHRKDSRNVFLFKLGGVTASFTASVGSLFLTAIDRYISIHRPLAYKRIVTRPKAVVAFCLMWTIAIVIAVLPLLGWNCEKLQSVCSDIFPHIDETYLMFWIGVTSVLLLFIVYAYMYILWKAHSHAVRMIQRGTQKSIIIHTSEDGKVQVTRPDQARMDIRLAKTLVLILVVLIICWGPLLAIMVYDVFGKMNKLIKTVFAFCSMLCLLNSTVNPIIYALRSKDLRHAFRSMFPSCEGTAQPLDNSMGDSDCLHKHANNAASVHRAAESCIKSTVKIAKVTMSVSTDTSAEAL

The term EC50 denotes the concentration at which the effect is half-maximal. A low value points to greater potency. As to `O=S(=O)(c1ccc2c(c1)C1C3CCC(C3)C1C(c1ccccc1)N2)N1CCCCC1` (stereo not drawn) [(3b), Bridged 6-phenyl-2-(piperidin-1-ylsulfonyl)-5,6,6a,7,8,9,10,10a-octahydrophenanthridine], in data set [1], the Emax stood at 101% and the EC50 was 0.38 nM. Moreover, in data set [2], the Emax was under 40% and the EC50 was over 10 µM. The “% MPE” value in data set [3] turned out to be 12%. Besides, the “Δ BODY TEMP. (° C.): observed reduction in body temperature” value (“Δ BODY TEMP. (° C.): observed reduction” below) in data set [4] stood at 0.4 °C.
As for `O=S(=O)(c1ccc2c(c1)C1C3CCC(C3)C1C(c1ccccc1)N2)N1CCOCC1` (stereo not drawn) [(34), Bridged 4-(6-phenyl-5,6,6a,7,8,9,10,10a-octahydrophenanthridin-2-ylsulfonyl)morpholine], in data set [1], the Emax was 102% and the response was half-maximal at 0.56 nM (EC50). Also, in data set [2], the Emax was under 40% and the EC50 was over 10 µM. The “% MPE” value in data set [3] amounted to 23%. For the same molecule, the “Δ BODY TEMP. (° C.): observed reduction” value in data set [4] is 0.1 °C.
For the molecule `CC(=O)NS(=O)(=O)c1ccc2c(c1)C1C3CCC(C3)C1C(c1ccccc1)N2` (stereo not drawn) [(46), Bridged N-(6-phenyl-5,6,6a,7,8,9,10,10a-octahydrophenanthridin-2-ylsulfonyl)acetamide], in data set [1], the Emax stood at 96.9% and the EC50 was found to be 36.7 nM. For the same molecule, in data set [2], the Emax was under 40% and the EC50 is over 10 µM. The “% MPE” value in data set [3] turned out to be 41%. Besides, the “Δ BODY TEMP. (° C.): observed reduction” value in data set [4] was 0.2 °C.
